“And” between values parts separate entries of the source, which are not always exact repeats. Equal entries are not always repeated.
What follows are molecules tested against PIK3CD (Human) (UniProt O00329) (assay: Enzyme Assay).
Chain of PIK3CD (Human) (O00329 whole entry, looked up): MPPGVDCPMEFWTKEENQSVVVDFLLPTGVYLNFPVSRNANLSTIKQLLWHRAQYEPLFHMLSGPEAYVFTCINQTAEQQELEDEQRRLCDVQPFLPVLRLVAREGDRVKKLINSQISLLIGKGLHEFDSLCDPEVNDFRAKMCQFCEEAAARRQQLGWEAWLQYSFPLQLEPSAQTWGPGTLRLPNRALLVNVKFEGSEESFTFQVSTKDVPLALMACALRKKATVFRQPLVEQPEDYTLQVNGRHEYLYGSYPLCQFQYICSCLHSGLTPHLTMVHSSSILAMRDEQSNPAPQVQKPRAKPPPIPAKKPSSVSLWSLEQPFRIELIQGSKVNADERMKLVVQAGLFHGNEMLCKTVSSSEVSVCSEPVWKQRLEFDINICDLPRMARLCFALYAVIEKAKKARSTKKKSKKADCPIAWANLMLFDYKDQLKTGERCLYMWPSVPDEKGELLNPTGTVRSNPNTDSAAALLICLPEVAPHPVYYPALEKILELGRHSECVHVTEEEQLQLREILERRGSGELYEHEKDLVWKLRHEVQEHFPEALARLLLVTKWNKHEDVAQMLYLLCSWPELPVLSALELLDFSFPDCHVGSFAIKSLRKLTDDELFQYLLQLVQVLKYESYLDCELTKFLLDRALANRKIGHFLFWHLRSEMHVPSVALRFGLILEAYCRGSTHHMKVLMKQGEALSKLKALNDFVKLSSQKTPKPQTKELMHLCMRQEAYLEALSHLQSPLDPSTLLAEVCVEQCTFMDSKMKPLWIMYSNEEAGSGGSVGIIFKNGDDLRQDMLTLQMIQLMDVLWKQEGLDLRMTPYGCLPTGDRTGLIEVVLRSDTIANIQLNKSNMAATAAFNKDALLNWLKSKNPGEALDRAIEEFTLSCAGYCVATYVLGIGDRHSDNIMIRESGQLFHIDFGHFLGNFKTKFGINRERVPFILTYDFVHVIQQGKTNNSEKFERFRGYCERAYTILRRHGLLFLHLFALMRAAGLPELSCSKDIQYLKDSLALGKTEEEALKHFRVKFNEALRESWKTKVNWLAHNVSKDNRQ
For `Cc1nc(-c2cn3c(n2)-c2ccc(-c4cnn(C)c4C4CN(C(C)C)CCO4)cc2OCC3)n(C(C)C)n1` (centres undefined), the IC50 was 1.2 nM and 1.08 nM.

Each molecule was assayed against PIK3CA (human) (UniProt P42336) (assay: Inhibition of PIK3CA Kinase Activity).
Chain of PIK3CA (human) (P42336 whole entry, looked up): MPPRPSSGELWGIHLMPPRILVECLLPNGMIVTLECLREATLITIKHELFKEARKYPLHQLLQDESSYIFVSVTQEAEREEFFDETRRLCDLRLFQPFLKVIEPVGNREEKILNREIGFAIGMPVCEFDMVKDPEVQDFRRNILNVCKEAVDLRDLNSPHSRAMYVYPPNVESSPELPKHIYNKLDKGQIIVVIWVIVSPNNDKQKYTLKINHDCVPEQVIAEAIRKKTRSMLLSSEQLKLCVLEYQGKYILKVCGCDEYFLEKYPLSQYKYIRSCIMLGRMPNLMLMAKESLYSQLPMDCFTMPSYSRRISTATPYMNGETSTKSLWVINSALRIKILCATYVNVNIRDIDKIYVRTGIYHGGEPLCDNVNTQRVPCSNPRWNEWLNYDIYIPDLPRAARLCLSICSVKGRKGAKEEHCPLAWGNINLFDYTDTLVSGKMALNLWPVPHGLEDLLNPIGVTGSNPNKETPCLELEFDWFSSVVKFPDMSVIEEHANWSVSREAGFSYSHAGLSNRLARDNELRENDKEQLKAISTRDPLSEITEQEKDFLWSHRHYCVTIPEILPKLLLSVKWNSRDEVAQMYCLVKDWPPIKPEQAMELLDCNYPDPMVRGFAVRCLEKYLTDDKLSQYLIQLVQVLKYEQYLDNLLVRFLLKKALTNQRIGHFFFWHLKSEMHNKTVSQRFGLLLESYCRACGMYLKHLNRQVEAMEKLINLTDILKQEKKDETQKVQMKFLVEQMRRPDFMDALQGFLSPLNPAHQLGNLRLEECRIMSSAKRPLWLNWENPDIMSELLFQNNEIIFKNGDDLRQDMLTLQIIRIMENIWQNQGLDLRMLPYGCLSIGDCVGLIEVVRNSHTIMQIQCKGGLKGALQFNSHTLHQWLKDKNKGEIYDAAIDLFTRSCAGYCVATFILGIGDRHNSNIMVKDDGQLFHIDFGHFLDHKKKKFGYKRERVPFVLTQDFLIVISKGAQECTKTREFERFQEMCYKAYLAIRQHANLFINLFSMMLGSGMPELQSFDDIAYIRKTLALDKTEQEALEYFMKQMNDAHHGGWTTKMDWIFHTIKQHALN
`Cc1nc(-c2cn3c(n2)-c2cc(C(C)N4CCN(C)CC4)c(F)cc2OCC3)n(C(C)C)n1` (centres undefined) gave an IC50 of 49.1 nM. `Cc1nc(-c2cn3c(n2)-c2ccc(-c4cnn(C)c4C4CN(C(C)C)CCO4)cc2OCC3)n(C(C)C)n1` (centres undefined) was tested, and the IC50 was 17.9 nM and 107 nM and 41.5 nM. Molecule `Cc1nc(-c2cn3c(n2)-c2ccc(N4CCC4[C@@H]4CCCN(C(C)C)C4)cc2OCC3)n(C(C)C)n1` (some centres undefined) has an IC50 of 3.41 nM. With `Cc1nc(-c2cn3c(n2)-c2ccc(N4CCC4C4CCN(C)CC4)cc2OCC3)n(C(C)C)n1` (centres undefined) the IC50 was 21.5 nM and 45.4 nM and 11.8 nM. `Cc1nc(-c2cn3c(n2)-c2cc([C@@H](C)N4CCN(C(C)(C)C)CC4)ncc2OCC3)n(C(C)C)n1` gave an IC50 of 80.4 nM. With `Cc1nc(-c2cn3c(n2)-c2ccc(-c4cn[nH]c4C4CCCN(C(C)C)C4)cc2OCC3)n(C(C)C)n1` (centres undefined) the IC50 was 22.9 nM and 7.46 nM. In the case of `Cc1nc(-c2cn3c(n2)-c2cc([C@@H](C)N4CCN(CC(C)(C)O)CC4)c(F)cc2OCC3)n(C(C)C)n1`, the IC50 is reported as 182 nM. Work on `Cc1nc(-c2cn3c(n2)-c2cc(-c4ccnn4[C@@H]4CCCN(C5COC5)C4)c(F)cc2OCC3)n(C(C)C)n1` yielded an IC50 of 36.7 nM.

Source: the Kinase Knowledgebase extract (Sharma et al. 2016)
